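At the GI50, growth is halved. TGI: concentration producing complete growth inhibition.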
Columns and labels:
Assay in all cases: growth of human tumour cells (NCI), 384-well format
[1] = tested on: SF-268 CNS
[2] = tested on: M14 melanoma
[3] = tested on: HOP-62 NSCLC
[4] = tested on: SNB-75 CNS
[5] = tested on: PC-3 prostate
[6] = tested on: NCI-H322M lung
[7] = tested on: EKVX NSCLC
[8] = tested on: SF-295 CNS
[9] = tested on: KM12 colon
[10] = tested on: OVCAR-8 ovarian
[11] = tested on: RXF 393 renal
[12] = tested on: NCI/ADR-RES ovarian
[13] = tested on: HOP-92 NSCLC
[14] = tested on: NCI-H522 lung
[15] = tested on: U251 glioblastoma
[16] = tested on: ACHN renal
[17] = tested on: BT-549 breast
[18] = tested on: HT29 colon
[19] = tested on: A498 renal
[20] = tested on: TK-10 renal
[21] = tested on: UO-31 renal
[22] = tested on: 786-0 renal
[23] = tested on: SNB-19 CNS
[24] = tested on: OVCAR-4 ovarian
[25] = tested on: SK-MEL-28 melanoma
[26] = tested on: NCI-H23 lung
[27] = tested on: LOX IMVI melanoma
[28] = tested on: NCI-H226 lung
[29] = tested on: OVCAR-5 ovarian
[30] = tested on: MDA-MB-231 breast
[31] = tested on: UACC-62 melanoma
[32] = tested on: MDA-MB-468 breast
[33] = tested on: CAKI-1 renal
[34] = tested on: SW-620 colon
[35] = tested on: T-47D breast
[36] = tested on: SK-MEL-5 melanoma
[37] = tested on: HCT-15 colon
[38] = tested on: HL-60(TB) leukemia
[39] = tested on: OVCAR-3 ovarian
[40] = tested on: SN12C renal
[41] = tested on: MDA-MB-435 melanoma
[42] = tested on: A549 NSCLC
[43] = tested on: RPMI-8226 leukemia
[44] = tested on: SR leukemia
[45] = tested on: MALME-3M melanoma
[46] = tested on: UACC-257 melanoma
[47] = tested on: MOLT-4 leukemia
[48] = tested on: DU-145 prostate
[49] = tested on: HS 578T breast
[50] = tested on: IGROV1 ovarian
[51] = tested on: MCF7 breast
[52] = tested on: COLO 205 colon
[53] = tested on: SK-OV-3 ovarian
[54] = tested on: K-562 leukemia
[55] = tested on: HCC-2998 colon
[56] = tested on: CCRF-CEM leukemia
[57] = tested on: SF-539 CNS
[58] = tested on: NCI-H460 NSCLC

How did the GI50 [1] turn out when Cc1ccc(NC(=O)c2ccc(CN3CCN(C)CC3)cc2)cc1Nc1nc(-c2cccnc2)cs1 was run?
The GI50 was 4.08 µM.

What about the TGI [1] of the same molecule?
The TGI was 14 µM.

What about the GI50 [2] of the same molecule?
The GI50 was 2.07 µM.

What about the TGI [2] of the same molecule?
Its TGI is 4.11 µM.

What about the GI50 [3] of the same molecule?
The GI50 was 4.31 µM.

What about the TGI [3] of the same molecule?
The TGI was 15.4 µM.

And the GI50 [4]?
The GI50 was 3.7 µM.

What about the TGI [4] of the same molecule?
The TGI was 12 µM.

What about the GI50 [5] of the same molecule?
The GI50 was 3.25 µM.

What about the TGI [5] of the same molecule?
Its TGI is 9.72 µM.

What about the GI50 [6] of the same molecule?
Its GI50 is 3.39 µM.

And the TGI [6]?
The TGI was 11.4 µM.

And the GI50 [7]?
Its GI50 is 4.22 µM.

And the TGI [7]?
Its TGI is 15.4 µM.

What about the GI50 [8] of the same molecule?
Its GI50 is 1.84 µM.

And the TGI [8]?
Its TGI is 3.32 µM.

And the GI50 [9]?
Its GI50 is 3.11 µM.

What about the TGI [9] of the same molecule?
Its TGI is 10.3 µM.

What about the GI50 [10] of the same molecule?
The GI50 was 3.54 µM.

What about the TGI [10] of the same molecule?
Its TGI is 12.5 µM.

And the GI50 [11]?
Its GI50 is 1.54 µM.

What about the TGI [11] of the same molecule?
The TGI was 2.98 µM.

And the GI50 [12]?
The GI50 was 5.47 µM.

What about the TGI [12] of the same molecule?
Its TGI is 16.6 µM.

And the GI50 [13]?
The GI50 was 3.33 µM.

What about the TGI [13] of the same molecule?
The TGI was 12.2 µM.

What about the GI50 [14] of the same molecule?
The GI50 was 3.83 µM.

What about the TGI [14] of the same molecule?
The TGI was 13.9 µM.

What about the GI50 [15] of the same molecule?
Its GI50 is 2.36 µM.

What about the TGI [15] of the same molecule?
Its TGI is 5.39 µM.

What about the GI50 [16] of the same molecule?
The GI50 was 3.31 µM.

And the TGI [16]?
The TGI was 9.96 µM.

What about the GI50 [17] of the same molecule?
The GI50 was 4.12 µM.

What about the TGI [17] of the same molecule?
The TGI was 14.4 µM.

And the GI50 [18]?
The GI50 was 1.72 µM.

And the TGI [18]?
The TGI was 3.32 µM.

What about the GI50 [19] of the same molecule?
Its GI50 is 2.42 µM.

What about the TGI [19] of the same molecule?
Its TGI is 5.52 µM.

What about the GI50 [20] of the same molecule?
Its GI50 is 12.2 µM.

And the TGI [20]?
Its TGI is 24.7 µM.

And the GI50 [21]?
The GI50 was 5.43 µM.

And the TGI [21]?
Its TGI is 17.4 µM.

And the GI50 [22]?
Its GI50 is 1.79 µM.

What about the TGI [22] of the same molecule?
The TGI was 3.66 µM.

What about the GI50 [23] of the same molecule?
Its GI50 is 10.6 µM.

And the TGI [23]?
Its TGI is 22.5 µM.

And the GI50 [24]?
Its GI50 is 2.59 µM.

And the TGI [24]?
Its TGI is 11.1 µM.

What about the GI50 [25] of the same molecule?
Its GI50 is 1.91 µM.

What about the TGI [25] of the same molecule?
The TGI was 3.42 µM.

And the GI50 [26]?
Its GI50 is 2.9 µM.

What about the TGI [26] of the same molecule?
The TGI was 11.9 µM.

What about the GI50 [27] of the same molecule?
Its GI50 is 1.91 µM.

And the TGI [27]?
Its TGI is 3.52 µM.

And the GI50 [28]?
Its GI50 is 3.84 µM.

What about the TGI [28] of the same molecule?
Its TGI is 15.9 µM.

And the GI50 [29]?
Its GI50 is 3.4 µM.

What about the TGI [29] of the same molecule?
The TGI was 9.15 µM.

And the GI50 [30]?
The GI50 was 3.38 µM.

And the TGI [30]?
The TGI was 11.7 µM.

What about the GI50 [31] of the same molecule?
The GI50 was 1.75 µM.

What about the TGI [31] of the same molecule?
The TGI was 3.64 µM.

And the GI50 [32]?
Its GI50 is 1.65 µM.

What about the TGI [32] of the same molecule?
The TGI was 3.77 µM.

And the GI50 [33]?
The GI50 was 3.9 µM.

What about the TGI [33] of the same molecule?
The TGI was 13 µM.

What about the GI50 [34] of the same molecule?
Its GI50 is 2.17 µM.

And the TGI [34]?
Its TGI is 5.13 µM.

And the GI50 [35]?
Its GI50 is 1.76 µM.

And the TGI [35]?
Its TGI is 5.2 µM.

What about the GI50 [36] of the same molecule?
Its GI50 is 1.55 µM.

What about the TGI [36] of the same molecule?
Its TGI is 3.15 µM.

What about the GI50 [37] of the same molecule?
The GI50 was 1.69 µM.

And the TGI [37]?
Its TGI is 3.2 µM.

What about the GI50 [38] of the same molecule?
Its GI50 is 1.74 µM.

And the TGI [38]?
Its TGI is 3.16 µM.

What about the GI50 [39] of the same molecule?
The GI50 was 2.24 µM.

And the TGI [39]?
The TGI was 5.16 µM.

And the GI50 [40]?
The GI50 was 12.7 µM.

And the TGI [40]?
Its TGI is 25.3 µM.

What about the GI50 [41] of the same molecule?
The GI50 was 6.47 µM.

And the TGI [41]?
Its TGI is 18.9 µM.

And the GI50 [42]?
The GI50 was 5.25 µM.

And the TGI [42]?
The TGI was 17.3 µM.

And the GI50 [43]?
Its GI50 is 1.42 µM.

What about the TGI [43] of the same molecule?
The TGI was 2.78 µM.

What about the GI50 [44] of the same molecule?
The GI50 was 1.53 µM.

And the TGI [44]?
Its TGI is 2.87 µM.

What about the GI50 [45] of the same molecule?
Its GI50 is 1.64 µM.

What about the TGI [45] of the same molecule?
The TGI was 3.16 µM.

What about the GI50 [46] of the same molecule?
The GI50 was 1.82 µM.

And the TGI [46]?
The TGI was 3.37 µM.

What about the GI50 [47] of the same molecule?
Its GI50 is 1.55 µM.

What about the TGI [47] of the same molecule?
Its TGI is 2.95 µM.

What about the GI50 [48] of the same molecule?
The GI50 was 12 µM.

And the TGI [48]?
Its TGI is 24.4 µM.

And the GI50 [49]?
The GI50 was 1.73 µM.

And the TGI [49]?
The TGI was 3.87 µM.

And the GI50 [50]?
The GI50 was 11.2 µM.

And the TGI [50]?
Its TGI is 23.3 µM.

What about the GI50 [51] of the same molecule?
Its GI50 is 1.94 µM.

And the TGI [51]?
The TGI was 5.95 µM.

What about the GI50 [52] of the same molecule?
The GI50 was 3.64 µM.

What about the TGI [52] of the same molecule?
The TGI was 11 µM.

What about the GI50 [53] of the same molecule?
The GI50 was 3.89 µM.

And the TGI [53]?
The TGI was 12.3 µM.

And the GI50 [54]?
The GI50 was 0.283 µM.

What about the TGI [54] of the same molecule?
The TGI was 1.12 µM.

And the GI50 [55]?
Its GI50 is 1.84 µM.

What about the TGI [55] of the same molecule?
Its TGI is 3.68 µM.

And the GI50 [56]?
Its GI50 is 1.54 µM.

What about the TGI [56] of the same molecule?
The TGI was 3.09 µM.

And the GI50 [57]?
The GI50 was 1.5 µM.

What about the TGI [57] of the same molecule?
Its TGI is 3.19 µM.

What about the GI50 [58] of the same molecule?
The GI50 was 2.16 µM.

What about the TGI [58] of the same molecule?
Its TGI is 4.71 µM.

From PubChem BioAssay (NCI)
